As a reminder, the IC50 is the midpoint of a concentration-inhibition curve.

Molecules are shown by their SMILES. Where a name gives a salt, the structure may show the parent alone. Read-outs that look alike come from different tables or passages of the source.

Assay [1] has as its system Toxoplasma gondii RH-β1 strain. In words: microbe, parasite or virus in culture. The class given is cell-based. To be noted: Toxoplasma gondii, read-out: IC50 assessed on Toxoplama Gondii.
Assay [2] concerns asynchronous 3D7 chloroquine-sensitive P. falciparum infected red blood cells. The assay can be described thus: Labeled hypoxanthine incorporation assay (in vitro anti-malarial activity). Particulars: Plasmodium falciparum, 3D7, Erythrocyte, read-out: IC50 assessed on Plasmodium Falciparum. The assay is classed as cell-based.
Where [3] appears, read: 3D7 chloroquine-sensitive strain, infected RBC, 48 h contact, [3H]-hypoxanthine incorporation, two independent experiments in duplicates.

Take `O=C(OCCCN(Cc1ccccc1)Cc1cccs1)N1CCC(n2c(=O)[nH]c3ccccc32)CC1` [Compound 141, 3-(benzyl(thiophen-2-ylmethyl)amino)propyl 4-(2-oxo-2,3-dihydro-1H-benzo[d]imidazol-1-yl)piperidine-1-carboxylate hydrochloride]: the IC50 in assay [1] was 4 µM; in assay [2] (setting [3]), 4.17 µM.
In the same order, the values of `O=C(OCCCN(Cc1ccccc1)Cc1cccc(Cl)c1)N1CCC(n2c(=O)[nH]c3ccccc32)CC1` [Compound 142, 3-(benzyl(3-chlorobenzyl)amino)propyl 4-(2-oxo-2,3-dihydro-1H-benzo[d]imidazol-1-yl)piperidine-1-carboxylate hydrochloride] are 1.2 µM and 2.92 µM.
In the same order, the values of `O=C(OCCCN(Cc1ccccc1)Cc1cccc2ccccc12)N1CCC(n2c(=O)[nH]c3ccccc32)CC1` [Compound 144, 3-(benzyl(naphthalen-1-ylmethyl)amino)propyl 4-(2-oxo-2,3-dihydro-1H-benzo[d]imidazol-1-yl)piperidine-1-carboxylate hydrochloride] are 2.7 µM and 3.24 µM.
For `O=C(OCCCN(Cc1ccccc1)Cc1ccnc2ccccc12)N1CCC(n2c(=O)[nH]c3ccccc32)CC1` [Compound 145, 3-(benzyl(quinolin-4-ylmethyl)amino)propyl 4-(2-oxo-2,3-dihydro-1H-benzo[d]imidazol-1-yl)piperidine-1-carboxylate hydrochloride], in that order: 3.3 µM and 0.731 µM.
Consider `O=C(OCCCN(Cc1ccccc1)Cc1cccc(Oc2ccccc2)c1)N1CCC(n2c(=O)[nH]c3ccccc32)CC1` [Compound 146, 3-(benzyl(3-phenoxybenzyl)amino)propyl 4-(2-oxo-2,3-dihydro-1H-benzo[d]imidazol-1-yl)piperidine-1-carboxylate hydrochloride], for which the 50% inhibitory concentration (IC50) in assay [1] is 1.5 µM; in assay [2] (setting [3]), 1.96 µM.
For `COc1cccc(CN(CCCOC(=O)N2CCC(n3c(=O)[nH]c4ccccc43)CC2)Cc2ccccc2)c1` [Compound 149, 3-(benzyl(3-methoxybenzyl)amino)propyl 4-(2-oxo-2,3-dihydro-1H-benzo[d]imidazol-1-yl)piperidine-1-carboxylate hydrochloride], in that order: 3.5 µM and 0.588 µM.
On to `O=C(OCCN(Cc1ccccc1)Cc1ccc(Cl)cc1)N1CCC(n2c(=O)[nH]c3ccccc32)CC1` [Compound 150, 2-(benzyl(4-chlorobenzyl)amino)ethyl 4-(2-oxo-2,3-dihydro-1H-benzo[d]imidazol-1-yl)piperidine-1-carboxylate], for which the IC50 in assay [1] amounted to 1.5 µM; in assay [2] (setting [3]) it was 2.59 µM.
For the compound `O=C(OC[C@H](Cc1ccccc1)N(Cc1ccccc1)Cc1ccccc1)N1CCC(Nc2ccccc2)CC1` [Compound 152, (S)-2-(dibenzylamino)-3-phenylpropyl 4-(phenylamino)piperidine-1-carboxylate], the values for the IC50 in assay [1] and in assay [2] were 3.8 µM and 0.922 µM, respectively.
For `C[C@@H](COC(=O)N1CCC(n2c(-c3ccccc3)nc3ccccc32)CC1)N(Cc1ccccc1)Cc1ccccc1` [Compound 153, (S)-2-(dibenzylamino)propyl 4-(2-phenyl-1H-benzo[d]imidazol-1-yl)piperidine-1-carboxylate], the IC50 in assay [1] was found to be 3.75 µM; in assay [2] (setting [3]) it was 2.33 µM.
For `C[C@@H](COC(=O)N1CCC(N(c2ccccc2)S(=O)(=O)c2ccc(F)cc2)CC1)N(Cc1ccccc1)Cc1ccccc1` [Compound 155, (S)-2-(dibenzylamino)propyl 4-(N-phenyl-4-fluorophenylsulfonamido)piperidine-1-carboxylate], in that order: 0.8 µM and 0.617 µM.
Turning to `COc1ccc(S(=O)(=O)N(c2ccccc2)C2CCN(C(=O)OC[C@H](C)N(Cc3ccccc3)Cc3ccccc3)CC2)cc1` [Compound 156, (S)-2-(dibenzylamino)propyl 4-(N-phenyl-4-methoxyphenylsulfonamido)piperidine-1-carboxylate], the IC50 was determined as 4 µM in assay [1] and 0.783 µM in assay [2] (setting [3]).
In the same order, the values of `C[C@@H](COC(=O)N1CCC(N(c2ccccc2)S(=O)(=O)c2cccs2)CC1)N(Cc1ccccc1)Cc1ccccc1` [Compound 159, (S)-2-(dibenzylamino)propyl 4-(N-phenylthiophen-2-ylsulfonamido)piperidine-1-carboxylate] are 1 µM and 0.861 µM.
For `C[C@@H](COC(=O)N1CCC(N(c2ccccc2)S(=O)(=O)c2cccc3cccnc23)CC1)N(Cc1ccccc1)Cc1ccccc1` [Compound 160, (S)-2-(dibenzylamino)propyl 4-(N-phenylquinolin-8-ylsulfonamido)piperidine-1-carboxylate], in that order: 2.7 µM and 1.06 µM.
With `C[C@@H](COC(=O)N1CCC(N(C(=S)Nc2ccccc2)c2ccccc2)CC1)N(Cc1ccccc1)Cc1ccccc1` [Compound 165, (S)-2-(dibenzylamino)propyl 4-(1,3-diphenylthioureido)piperidine-1-carboxylate], the IC50 in assay [1] is 3 µM; in assay [2] (setting [3]), 1.25 µM.
For `Cc1ccccc1S(=O)(=O)N(c1ccccc1)C1CCN(C(=O)OC[C@H](C)N(Cc2ccccc2)Cc2ccccc2)CC1` [Compound 167, (S)-2-(dibenzylamino)propyl 4-(N-phenyl-2-methylphenylsulfonamido)piperidine-1-carboxylate], in that order: 3.9 µM and 0.338 µM.
For `Cc1cccc(S(=O)(=O)N(c2ccccc2)C2CCN(C(=O)OC[C@H](C)N(Cc3ccccc3)Cc3ccccc3)CC2)c1` [Compound 168, (S)-2-(dibenzylamino)propyl 4-(N-phenyl-3-methylphenylsulfonamido)piperidine-1-carboxylate], in that order: 2.9 µM and 0.483 µM.
For `C[C@@H](COC(=O)N1CCC(N(c2ccccc2)S(=O)(=O)c2cccc(C(F)(F)F)c2)CC1)N(Cc1ccccc1)Cc1ccccc1` [Compound 169, (S)-2-(dibenzylamino)propyl 4-(N-phenyl-3-(trifluoromethyl)phenylsulfonamido)piperidine-1-carboxylate], in that order: 3.2 µM and 0.553 µM.
In the case of `C[C@@H](COC(=O)N1CCC(N(c2ccccc2)S(=O)(=O)c2cccc3c(N(C)C)cccc23)CC1)N(Cc1ccccc1)Cc1ccccc1` [Compound 172, (S)-2-(dibenzylamino)propyl 4-(N-phenyl-(5-dimethylamino)naphthalen-1-ylsulfonamido)piperidine-1-carboxylate], the 50% inhibitory concentration (IC50) in assay [1] worked out at 0.212 µM; in assay [2] (setting [3]), 0.314 µM.
In the case of `Oc1cc(Cl)ccc1Oc1ccc(Cl)cc1Cl` [Triclosan, reference compound], the IC50 is 0.32 µM in assay [1] and 1.55 µM in assay [2].

The values above are taken from patent publication US20100292214A1, “Compounds with Antiparasitic Activity, Applications thereof to the Treatment of Infectious Diseases Caused by Apicomplexans” (commissariat a l'Energie Atomique, priority 2007, published 2010).
